Patent publication US20060211764A1, “Cell activator, process for producing cell activator and apparatus therefor” (priority 2002, published 2006)

Legend:
[1] = Administration to bovines antepartum; assay type: in vivo, bovine
Text: From 3 to 5 days before expected date of delivery, 50 g/day of CPL administration was initiated.

colon cancer = test: Administration to a human patient, colon cancer; assay type: in vivo; settings: person
endometriosis = test: Administration to human patients, endometriosis; assay type: in vivo
[2] = test system: diabetes/rheumatism/hypertension; test: Administration to a human patient, diabetes/rheumatism/hypertension; assay type: in vivo; settings: person; 15 g/day for 30 days, then up to 20 g/day
[3] = Examinations after ingestion by healthy subjects and long-term patients; assay type: in vivo, human
[4] = test system: infantile asthma, atopic dermatitis; test: Administration to a child, infantile asthma, atopic dermatitis; assay type: in vivo, human; settings: CPL solution plus spraying agent, 15 g/day for 40 days, 10 g/day for next 140 days
Method: In addition to the said solution, a spraying agent was used. The said spraying agent was prepared by filling a spraying container with a solution, which was prepared by further diluting by a flux the ointment manufactured by dissolving cyclic polylactic acids in a flux such as propylene glycol, etc. before they solidify, which was described in the <Example of manufacturing> section.

diarrhea = test: Administration to calves, diarrhea; assay type: in vivo, bovine
Text: Diarrhea frequently occurred in calves when changing to the milk substitute, which is thought to inhibit normal development of the calves. Then farmers may suffer a serious loss.

liver cancer = test: Administration to human patients, liver cancer; assay type: in vivo; settings: male
[5] = test system: lactate dehydrogenases (LDH); test: Inhibition of lactate dehydrogenase activity of cancer cells; assay type: biochemical
Text: Morphologically, it causes vacuolation, and the expansion of the cytoplasm of cells, disintegration and aggregation of the nucleus. […] These are considered to inhibit not only the synthesis of ATP but also the actions of mRNA and be involved in the synthesis of RNA and DNA, and the generation of intracellular energy by acting on the metabolism of the intracellular organelle such as rough-surfaced endoplasmic reticulum, smooth-surfaced endoplasmic reticulum, ribosome, Golgi apparatus, etc., and as a result, controlling the metabolism of the cells, influencing the synthesis of proteins/glycoprotein, intracellular lipid metabolism, and movement and transport of ions. […] Morphologically, in the case that cells end up degenerating, the degeneration generally changes first to the nucleus followed by the cytoplasm.

mastitis = test: Administration to bovines, mastitis; assay type: in vivo, bovine
Method: If an antibiotic drug is administered as usual, it takes at least one week after CR to make shipment of milk from the bovines, resulting in loss of 70,000-100,000 yen per bovine. […] Thus, the invention can contribute to dairy managerial economies.

infertility = test: Administration to human patients, infertility; assay type: in vivo
uterine/ovarian cancer = test: Administration to a human patient, uterine/ovarian cancer with ileus; assay type: in vivo
Method: Person, two years ago, the uterus was extirpated, the ovary and fallopian duct were resected and chemotherapy was performed 3 times. During hospitalization, an ileus tube was inserted due to an ileus. Then intestinal liquid and gas were emitted. A central nutrition tube was inserted into the right subclavian vein because oral ingestion was impossible. An artificial anus and urinary duct tube were attached due to a tumor in the left abdomen. […] Cancerous pain ameliorated and the ingestion of solid food from 3/10- 5/10- 7/10-whole porridge was enabled. Discharged from the hospital 3 months later.

pancreatic cancer = test: Administration to a human patient, pancreatic cancer; assay type: in vivo; settings: 30 g/day; in approximately 1 and a half months
Text: In approximately 1 and a half months, the patient recovered.

bladder cancer = test: Administration to human patients, bladder cancer; assay type: in vivo
gastric cancer = test: Administration to human patients, gastric cancer; assay type: in vivo
Text: Patient, gastric cancer had metastasized in the liver; countless cancer cells metastasized and dispersed in the liver.
Gastric cancer was detected as a result of a detailed examination, extirpated soon after the discovery, cancer as large as a head of a fetus was removed. Scattered additionally in the peritoneal cavity: Life expectancy was 3-6 months.
person, metastasized in the pancreas and peritoneum.

**Q.** Which mastitis prevention ([1]; 50 g/day from 3 to 5 days before expected date of delivery) does the source give for Cyclic Poly-lactate [CPL] here?
**A.** Its mastitis prevention is “confirmed to play a role in mastitis prevention”.

**Q.** And the delivery of calves ([1]; 50 g/day initiated 5 days before expected date of delivery)?
**A.** Its delivery of calves is “smoothly”.

**Q.** And the “colon tumors of 2 cm in size (Stage 2-3)” value (colon cancer; 20 g/day for 150 days, in 2 weeks)?
**A.** The value was “disappeared”.

**Q.** What about the “examination for colon cancer” value (colon cancer; examination 5 months later) of the same substance?
**A.** Its value is “No abnormalities were found”.

**Q.** What about the “CA125 of tumor marker” value (endometriosis; endometriosis patients, in the majority of the patients) of the same substance?
**A.** Its value is “improves”.

**Q.** What about the symptoms of menorrhagia (endometriosis; person, 10 g/day orally) of the same substance?
**A.** The symptoms of menorrhagia was “ameliorated”.

**Q.** What about the menstrual pain (endometriosis; person, 10 g/day orally, next menstruation) of the same substance?
**A.** Its menstrual pain is “ameliorated”.

**Q.** And the need for dialysis [2]?
**A.** Its need for dialysis is “dialysis was not necessary”.

**Q.** What about the “effect on results of examinations (physical findings, hematological/biochemical tests, urine and faeces)” value ([3]; healthy subjects, 6 g/day) of the same substance?
**A.** Its value is “not to affect”.

**Q.** And the “effect on biogenic basic functions (appetite, sleep, changes in weight, libido)” value ([3]; human, in vivo)?
**A.** Its value is “no effect”.

**Q.** And the “abnormal findings from examinations” value ([3]; patients who have taken 6 g/day for 3-5 years)?
**A.** The value was “no abnormal findings at all”.

**Q.** And the asthmatic seizures [4]?
**A.** Its asthmatic seizures is “stopped”.

**Q.** And the “eczema on the back and face” value [4]?
**A.** The value was “disappeared”.

**Q.** What about the itchiness [4] of the same substance?
**A.** Its itchiness is “cured”.

**Q.** What about the “outcome of diarrhea in calves changing to milk substitute” value (diarrhea; 20-30 g/day) of the same substance?
**A.** Its value is “recovered completely”.

**Q.** And the “diarrhea in calves that took CPL (prevention)” value (diarrhea; 20 g/day for the first 4-5 days)?
**A.** Its value is “spontaneously cured”.

**Q.** And the “time to complete recovery after CPL administration” value (diarrhea; calves, 20-30 g/day)?
**A.** Its value is “approximately 3 days”.

**Q.** And the “outcome of liver cancer” value (liver cancer; 20 g/day for 150 days)?
**A.** The value was “cured”.

**Q.** And the “outcome of liver cancer originated from liver cirrhosis” value (liver cancer; 20 g/day for 210 days)?
**A.** The value was “cured”.

**Q.** What about the “activity of lactate dehydrogenases (LDH)” value [5] of the same substance?
**A.** Its value is “inhibits”.

**Q.** And the response of mastitis (mastitis; oral, 50 g of CPL (powder) dissolved in water)?
**A.** Its response of mastitis is “Complete response”.

**Q.** What about the “milking from the other normal udders during treatment” value (mastitis; treatment using CPL alone) of the same substance?
**A.** Its value is “available”.

**Q.** What about the “number of patients who conceived” value (infertility; 10 patients with infertility, 6-9 g/day) of the same substance?
**A.** Its value is 8.

**Q.** And the lower abdominal pain (infertility; person, endometriosis, ovarian cyst, 6 g/day, within the next 2-3 days)?
**A.** Its lower abdominal pain is “ameliorated”.

**Q.** What about the conception (infertility; person, after endometriosis symptoms ameliorated) of the same substance?
**A.** The conception was “naturally conceived”.

**Q.** And the “excretion of gas, defecation and amount of urine” value (uterine/ovarian cancer; person with ileus, 4-6 g/day)?
**A.** The value was “increased”.

**Q.** And the ileus symptoms (uterine/ovarian cancer; person, 7 days later)?
**A.** The ileus symptoms was “negative”.

**Q.** What about the “recurrence of ileus symptoms” value (uterine/ovarian cancer; person, discharged 3 months later) of the same substance?
**A.** The value was “No recurrent ileus symptoms”.

**Q.** And the cancerous pain (uterine/ovarian cancer; person, oral ingestion 15-20 g/day)?
**A.** The cancerous pain was “ameliorated”.

**Q.** And the “outcome of patient with pancreatic cancer considered incurable” value (pancreatic cancer)?
**A.** Its value is “recovered”.

**Q.** And the “examination findings and recurrence of bladder cancer” value (bladder cancer; male, resection performed 5 times, 20-30 g/day for 50 days)?
**A.** The value was “no abnormal findings from examinations, nor a recurrence”.

**Q.** What about the “course of bladder cancer” value (bladder cancer; person, 40-50 g/day for 270 days) of the same substance?
**A.** The value was “improved from the terminal stage”.

**Q.** What about the “cancer blocks metastasized in the liver” value (gastric cancer; male, gastric cancer metastasized in the liver, CPL for 2 weeks) of the same substance?
**A.** Its value is “necrotized”.

**Q.** What about the “course of terminal inoperable gastric cancer” value (gastric cancer; person, metastasized in pancreas and peritoneum, 30 g/day for 150 days) of the same substance?
**A.** Its value is “progressing satisfactorily”.

**Q.** What about the “recurrence after extirpation of gastric cancer” value (gastric cancer; scattered in peritoneal cavity, life expectancy 3-6 months, 10 g/day for 5 months) of the same substance?
**A.** Its value is “no sign of a recurrence”.
